ChEMBL document CHEMBL1697781, “Assessment of the health effects of chemicals in humans: II. Construction of an adverse effects database for QSAR modeling” (Curr Drug Discov Technol, 2004)

How the values were obtained:
Settings in all cases: human; call rule not given here
[1] = test system: Hepatotoxicity; assay: FDA HLAED, serum glutamic oxaloacetic transaminase (SGOT) increase
[2] = test system: Hepatotoxicity; assay: FDA HLAED, alkaline phosphatase increase
[3] = test system: Hepatotoxicity; assay: FDA HLAED, liver enzyme composite activity
[4] = test system: Hepatotoxicity; assay: FDA HLAED, serum glutamic pyruvic transaminase (SGPT) increase
[5] = test system: Hepatotoxicity; assay: FDA HLAED, lactate dehydrogenase (LDH) increase
[6] = test system: Hepatotoxicity; assay: FDA HLAED, gamma-glutamyl transferase (GGT) increase
For GGT Increase - Index Value in this document: reference of the scale not given here.
For LDH Increase - Index Value in this document: reference of the scale not given here.

In the case of `COc1ccc(C(=O)Nc2ccccc2CCC2CCCCN2C)cc1` (configuration not stated) [ENCAINIDE], the “SGOT Increase - Activity Score” value [1] is reported as “Active”, the “SGOT Increase - Index Value” [1] is reported as 12.4 and the “SGOT Increase - Number of Reports” value [1] is reported as “>= 4”. For the same molecule, the “Alkaline Phosphatase Increase - Activity Score” value [2] was “Marginally Active”, the “Alkaline Phosphatase Increase - Index Value” [2] was 3.6 and the “Alkaline Phosphatase Increase - Number of Reports” value [2] was “>= 4”. The “Composite Activity - Active” value [3] was 3, the “Composite Activity - Marginal” value [3] was 1 and the “Composite Activity - Score” value [3] was “Active”. The “SGPT Increase - Activity Score” value [4] was “Active”, the “SGPT Increase - Index Value” [4] was 7.7 and the “SGPT Increase - Number of Reports” value [4] was “>= 4”. The “LDH Increase - Activity Score” value [5] was “Active”, the “LDH Increase - Index Value” [5] was 4.1 and the “LDH Increase - Number of Reports” value [5] was “>= 4”. For the same molecule, the “GGT Increase - Activity Score” value [6] was “Inactive”, the “GGT Increase - Index Value” [6] was 0 and the “GGT Increase - Number of Reports” value [6] was less than 4.

For `CCn1cc(C(=O)O)c(=O)c2cc(F)c(N3CCNCC3)nc21` [ENOXACIN], the “SGOT Increase - Activity Score” value [1] was “Inactive”, the “SGOT Increase - Index Value” [1] was 0 and the “SGOT Increase - Number of Reports” value [1] was less than 4. The “Alkaline Phosphatase Increase - Activity Score” value [2] was “Inactive”, the “Alkaline Phosphatase Increase - Index Value” [2] was 0 and the “Alkaline Phosphatase Increase - Number of Reports” value [2] was less than 4. The “Composite Activity - Active” value [3] was 0, the “Composite Activity - Marginal” value [3] was 0 and the “Composite Activity - Score” value [3] was “Inactive”. For the same molecule, the “SGPT Increase - Activity Score” value [4] was “Inactive”, the “SGPT Increase - Index Value” [4] was 0 and the “SGPT Increase - Number of Reports” value [4] was less than 4. The “LDH Increase - Activity Score” value [5] was “Inactive”, the “LDH Increase - Index Value” [5] was 0 and the “LDH Increase - Number of Reports” value [5] was less than 4. For the same molecule, the “GGT Increase - Activity Score” value [6] was “Inactive”, the “GGT Increase - Index Value” [6] was 0 and the “GGT Increase - Number of Reports” value [6] was less than 4.

With `CCCCC[C@H](O)/C=C/[C@@H]1[C@H]2C/C(=C/CCCC(=O)O)O[C@H]2C[C@H]1O` [EPOPROSTENOL] the “SGOT Increase - Activity Score” value [1] was “Inactive”, the “SGOT Increase - Index Value” [1] was 0 and the “SGOT Increase - Number of Reports” value [1] was less than 4. The “Alkaline Phosphatase Increase - Activity Score” value [2] was “Inactive”, the “Alkaline Phosphatase Increase - Index Value” [2] was 0 and the “Alkaline Phosphatase Increase - Number of Reports” value [2] was less than 4. The “Composite Activity - Active” value [3] was 0, the “Composite Activity - Marginal” value [3] was 0 and the “Composite Activity - Score” value [3] was “Inactive”. For the same molecule, the “SGPT Increase - Activity Score” value [4] was “Inactive”, the “SGPT Increase - Index Value” [4] was 0 and the “SGPT Increase - Number of Reports” value [4] was less than 4. The “LDH Increase - Activity Score” value [5] was “Inactive”, the “LDH Increase - Index Value” [5] was 0 and the “LDH Increase - Number of Reports” value [5] was less than 4. The “GGT Increase - Activity Score” value [6] was “Inactive”, the “GGT Increase - Index Value” [6] was 0 and the “GGT Increase - Number of Reports” value [6] was less than 4.

For `COC(=O)CCc1ccc(OCC(O)CNC(C)C)cc1` (configuration not stated) [ESMOLOL], the “SGOT Increase - Activity Score” value [1] was “Inactive”, the “SGOT Increase - Index Value” [1] was 4.6 and the “SGOT Increase - Number of Reports” value [1] was less than 4. The “Alkaline Phosphatase Increase - Activity Score” value [2] was “Inactive”, the “Alkaline Phosphatase Increase - Index Value” [2] was 0 and the “Alkaline Phosphatase Increase - Number of Reports” value [2] was less than 4. The “Composite Activity - Active” value [3] was 0, the “Composite Activity - Marginal” value [3] was 0 and the “Composite Activity - Score” value [3] was “Inactive”. For the same molecule, the “SGPT Increase - Activity Score” value [4] was “Inactive”, the “SGPT Increase - Index Value” [4] was 0 and the “SGPT Increase - Number of Reports” value [4] was less than 4. The “LDH Increase - Activity Score” value [5] was “Inactive”, the “LDH Increase - Index Value” [5] was 4.6 and the “LDH Increase - Number of Reports” value [5] was less than 4. For the same molecule, the “GGT Increase - Activity Score” value [6] was “Inactive”, the “GGT Increase - Index Value” [6] was 0 and the “GGT Increase - Number of Reports” value [6] was less than 4.

In the case of `Clc1ccc2c(c1)C(c1ccccc1)=NCc1nncn1-2` [ESTAZOLAM], the “SGOT Increase - Activity Score” value [1] is reported as “Inactive”, the “SGOT Increase - Index Value” [1] is reported as 0.8 and the “SGOT Increase - Number of Reports” value [1] is reported as less than 4. The “Alkaline Phosphatase Increase - Activity Score” value [2] was “Inactive”, the “Alkaline Phosphatase Increase - Index Value” [2] was 0 and the “Alkaline Phosphatase Increase - Number of Reports” value [2] was less than 4. For the same molecule, the “Composite Activity - Active” value [3] was 0, the “Composite Activity - Marginal” value [3] was 0 and the “Composite Activity - Score” value [3] was “Inactive”. The “SGPT Increase - Activity Score” value [4] was “Inactive”, the “SGPT Increase - Index Value” [4] was 0.8 and the “SGPT Increase - Number of Reports” value [4] was less than 4. For the same molecule, the “LDH Increase - Activity Score” value [5] was “Inactive”, the “LDH Increase - Index Value” [5] was 0 and the “LDH Increase - Number of Reports” value [5] was less than 4. The “GGT Increase - Activity Score” value [6] was “Inactive”, the “GGT Increase - Index Value” [6] was 0.8 and the “GGT Increase - Number of Reports” value [6] was less than 4.

`C[C@]12CC[C@@H]3c4ccc(OC(=O)c5ccccc5)cc4CC[C@H]3[C@@H]1CC[C@@H]2O` [ESTRADIOL BENZOATE] was tested, and the “SGOT Increase - Activity Score” value [1] was “Inactive”, the “SGOT Increase - Index Value” [1] was 2.8 and the “SGOT Increase - Number of Reports” value [1] was “>= 4”. For the same molecule, the “Alkaline Phosphatase Increase - Activity Score” value [2] was “Inactive”, the “Alkaline Phosphatase Increase - Index Value” [2] was 1.5 and the “Alkaline Phosphatase Increase - Number of Reports” value [2] was “>= 4”. The “Composite Activity - Active” value [3] was 0, the “Composite Activity - Marginal” value [3] was 0 and the “Composite Activity - Score” value [3] was “Inactive”. The “SGPT Increase - Activity Score” value [4] was “Inactive”, the “SGPT Increase - Index Value” [4] was 2.1 and the “SGPT Increase - Number of Reports” value [4] was “>= 4”. The “LDH Increase - Activity Score” value [5] was “Inactive”, the “LDH Increase - Index Value” [5] was 1.2 and the “LDH Increase - Number of Reports” value [5] was “>= 4”. For the same molecule, the “GGT Increase - Activity Score” value [6] was “Inactive”, the “GGT Increase - Index Value” [6] was 0.3 and the “GGT Increase - Number of Reports” value [6] was less than 4.

In the case of `C[C@]12CC[C@@H]3c4ccc(O)cc4CC[C@H]3[C@@H]1CC[C@@H]2OC(=O)CCC1CCCC1` [ESTRADIOL CYPIONATE], the “SGOT Increase - Activity Score” value [1] is reported as “Inactive”, the “SGOT Increase - Index Value” [1] is reported as 2.8 and the “SGOT Increase - Number of Reports” value [1] is reported as “>= 4”. The “Alkaline Phosphatase Increase - Activity Score” value [2] was “Inactive”, the “Alkaline Phosphatase Increase - Index Value” [2] was 1.5 and the “Alkaline Phosphatase Increase - Number of Reports” value [2] was “>= 4”. For the same molecule, the “Composite Activity - Active” value [3] was 0, the “Composite Activity - Marginal” value [3] was 0 and the “Composite Activity - Score” value [3] was “Inactive”. For the same molecule, the “SGPT Increase - Activity Score” value [4] was “Inactive”, the “SGPT Increase - Index Value” [4] was 2.1 and the “SGPT Increase - Number of Reports” value [4] was “>= 4”. The “LDH Increase - Activity Score” value [5] was “Inactive”, the “LDH Increase - Index Value” [5] was 1.2 and the “LDH Increase - Number of Reports” value [5] was “>= 4”. For the same molecule, the “GGT Increase - Activity Score” value [6] was “Inactive”, the “GGT Increase - Index Value” [6] was 0.3 and the “GGT Increase - Number of Reports” value [6] was less than 4.

In the case of `CCC(=O)Oc1ccc2c(c1)CC[C@@H]1[C@@H]2CC[C@]2(C)[C@@H](OC(=O)CC)CC[C@@H]12` [ESTRADIOL DIPROPIONATE], the “SGOT Increase - Activity Score” value [1] is reported as “Inactive”, the “SGOT Increase - Index Value” [1] is reported as 2.8 and the “SGOT Increase - Number of Reports” value [1] is reported as “>= 4”. The “Alkaline Phosphatase Increase - Activity Score” value [2] was “Inactive”, the “Alkaline Phosphatase Increase - Index Value” [2] was 1.5 and the “Alkaline Phosphatase Increase - Number of Reports” value [2] was “>= 4”. The “Composite Activity - Active” value [3] was 0, the “Composite Activity - Marginal” value [3] was 0 and the “Composite Activity - Score” value [3] was “Inactive”. For the same molecule, the “SGPT Increase - Activity Score” value [4] was “Inactive”, the “SGPT Increase - Index Value” [4] was 2.1 and the “SGPT Increase - Number of Reports” value [4] was “>= 4”. The “LDH Increase - Activity Score” value [5] was “Inactive”, the “LDH Increase - Index Value” [5] was 1.2 and the “LDH Increase - Number of Reports” value [5] was “>= 4”. For the same molecule, the “GGT Increase - Activity Score” value [6] was “Inactive”, the “GGT Increase - Index Value” [6] was 0.3 and the “GGT Increase - Number of Reports” value [6] was less than 4.

`CCCCCCC(=O)O[C@H]1CC[C@H]2[C@@H]3CCc4cc(O)ccc4[C@H]3CC[C@]12C` [ESTRADIOL ENANTHATE] was tested, and the “SGOT Increase - Activity Score” value [1] was “Inactive”, the “SGOT Increase - Index Value” [1] was 2.8 and the “SGOT Increase - Number of Reports” value [1] was “>= 4”. For the same molecule, the “Alkaline Phosphatase Increase - Activity Score” value [2] was “Inactive”, the “Alkaline Phosphatase Increase - Index Value” [2] was 1.5 and the “Alkaline Phosphatase Increase - Number of Reports” value [2] was “>= 4”. For the same molecule, the “Composite Activity - Active” value [3] was 0, the “Composite Activity - Marginal” value [3] was 0 and the “Composite Activity - Score” value [3] was “Inactive”. For the same molecule, the “SGPT Increase - Activity Score” value [4] was “Inactive”, the “SGPT Increase - Index Value” [4] was 2.1 and the “SGPT Increase - Number of Reports” value [4] was “>= 4”. The “LDH Increase - Activity Score” value [5] was “Inactive”, the “LDH Increase - Index Value” [5] was 1.2 and the “LDH Increase - Number of Reports” value [5] was “>= 4”. For the same molecule, the “GGT Increase - Activity Score” value [6] was “Inactive”, the “GGT Increase - Index Value” [6] was 0.3 and the “GGT Increase - Number of Reports” value [6] was less than 4.
